What was measured:
MOLT-4 = assay: NCI-60 screening, one-dose (10 µM) and five-dose, SRB; format: cell-based, human; conditions: five-dose, MOLT-4
MDA-MB-468 = assay: as above; format: cell-based, human; conditions: Homo sapiens
Excerpt: Control cells Test cells FLD
available usually at NCI library.
An aliquot of frozen drug concentrate is […]

[1] = system: 60 human cancer cell lines; assay: NCI-60 screening, full panel (mean growth, MID a, ranges over all lines)
Description: The screening was performed in accordance with the protocols set forth by the Drug Evaluation Department of the National Cancer Institute (NCI), Bethesda, USA, for in vitro anticancer efficacy at a single concentration of 10 µM against a panel of 60 cancer cell lines derived from nine distinct organs (https://dctd.cancer.gov/data-tools-biospecimens/data (accessed on 15 March 2023 and 6 January 2024)) [37].
The log10 GI50, log10 TGI, and log10 LC50 values were subsequently calculated as the averages of the log10 values of the respective individual GI50, TGI, and LC50 measurements. Negative numbers signified the most sensitive cell lines.
One way to measure a compound’s selectivity is to divide its subpanel MID^b (in μM) by the MID^a (in μM), which is the average sensitivity of all cell lines to the test agent.
At the National Cancer Institute (NCI) in Bethesda, USA, researchers examined the anticancer potential of the target compounds under investigation using nine panels of sixty different cell lines obtained from nine different cancers that were housed in the NCI library. Following the protocols laid out by the National Cancer Institute (https://dctd.cancer.gov/data-tools-biospecimens/data (accessed on 15 March 2023 and 6 January 2024)), the screening procedures were carried out [37]. The anticancer screening was carried out at a single dose of 10^−5 M; the results obtained were expressed as growth inhibition (%).
The anti-cancer potential of the tested compounds was evaluated at the National cancer institute (NCI), Bethesda, USA, against 9 panels of 60 various cell lines derived from nine human tumours available usually at NCI library. The procedures for the screening were described in details in NCI website (dttp://www.dtp.nci.nih.gov.) and were done according to NCI protocols. The anticancer screening was carried out at single dose of 10^-5 M. The results obtained as growth inhibition (%).
Cell lines were grown in Roswell Park Memorial Institute medium (RPMI) with 5% fetal bovine serum and 2% μM L-glutamine. Cancer cells are inoculated into 96 well microtiter plates in 100 μL at plating densities ranging from 5000 to 40,000 cells/well depending on the doubling time of individual cell lines. Then microtiter plates are incubated at 37 °C, 5% CO2, 95% air and 100% relative humidity for 24 h prior to the addition of the tested compounds. After 24 h, two plates of each cell line are fixed in situ with trichloroacetic acid (TCA). The tested compounds were dissolved in dimethyl sulfoxide (DMSO) and stored in the freezer prior to use. An aliquot of frozen drug concentrate is diluted to the desired concentration with complete medium containing 50 μg/mL gentamicin.

SR = assay: NCI-60 screening, one-dose (10 µM) and five-dose, SRB; format: cell-based, human; conditions: five-dose
SN12C = assay: as above; format: cell-based, human
RXF 393 = assay: as above; format: cell-based; conditions: Homo sapiens; 10 μM; RXF 393, Renal Cancer; read-out: Growth percentage
SK-OV-3 = assay: as above; format: cell-based, human
OVCAR-8 = assay: as above; format: cell-based, human
NCI-H322M = assay: as above; format: cell-based, human
HCT-116 = assay: as above; format: cell-based, human; conditions: five-dose, HCT-116
SW-620 = assay: as above; format: cell-based, human
PC-3 = assay: as above; format: cell-based, human
T-47D = assay: as above; format: cell-based, human; conditions: five-dose
A549/ATCC = assay: as above; format: cell-based, human
HT29 = assay: as above; format: cell-based, human
IGROV1 = assay: as above; format: cell-based, human
[2] = Homo sapiens, five-dose, read-out: LC50 (the source's name)
[3] = Homo sapiens, five-dose, SK-OV-3
[4] = Homo sapiens, five-dose, OVCAR-8
[5] = Homo sapiens, five-dose, SW-620
[6] = Homo sapiens, HT-29, five-dose, HT29
[7] = Homo sapiens, IGROV-1, five-dose, IGROV1

Compound: Cc1nc(SCC(=O)N2CCN(c3cc4c(cc3F)c(=O)c(C(=O)O)cn4C3CC3)CC2)sc1C(=O)/C=C/c1cccc(F)c1 [Compound 4d, (E)-1-Cyclopropyl-6-fluoro-7-(4-(2-((5-(3-(3-fluorophenyl)acryloyl)-4-methylthiazol-2-yl)thio)acetyl)piperazin-1-yl)-4-oxo-1,4-dihydroquinoline-3-carboxylic Acid]
- GI50 (MOLT-4; Homo sapiens): 3.4 µM
- IC50 (MOLT-4; Homo sapiens): 4.8 µM
- LC50 (concentration killing 50% of cells) (MOLT-4; Homo sapiens): 53.7 µM
- TGI (MOLT-4): 0.34 µM
- activity at 10 µM (MDA-MB-468; MDA-MB-468, 10 μM, MDA-MB-468, Breast Cancer, read-out: Growth percentage): -11.1%
- GI50 (MDA-MB-468; five-dose, MDA-MB-468): 4.1 µM
- IC50 (MDA-MB-468; five-dose, MDA-MB-468): > 100 µM
- CC50 (MDA-MB-468; five-dose, MDA-MB-468, read-out: LC50 (the source's name)): > 100 µM
- CC50 ([1]; Homo sapiens, read-out: LC50): 0.6 to 100 µM
- activity at 10 µM ([1]; Homo sapiens, read-out: Mean growth percentage): 20.2%
- Full-panel MG-MID ([1]; mean sensitivity across all cell lines in the panel): 70.2 µM
- GI50 (SR; Homo sapiens): 1.4 µM
- IC50 (SR; Homo sapiens): 2.3 µM
- CC50 (SR; Homo sapiens, read-out: LC50 (the source's name)): 5.3 µM
- TGI (SR): 100.0 µM
- activity at 10 µM (SN12C; Homo sapiens, 10 μM, Renal Cancer, read-out: Growth percentage): 27.7%
- GI50 (SN12C; Homo sapiens, five-dose): > 100 µM
- IC50 (SN12C; Homo sapiens, five-dose): > 100 µM
- CC50 (SN12C; [2]): > 100 µM
- TGI (SN12C; five-dose): 100.0 µM
- activity at 10 µM (RXF 393): -25.9%
- activity at 10 µM (SK-OV-3; Homo sapiens, 10 μM, SK-OV-3, Ovarian Cancer, read-out: Growth percentage): 5%
- GI50 (SK-OV-3; [3]): > 100 µM
- IC50 (SK-OV-3; [3]): > 100 µM
- CC50 (SK-OV-3; Homo sapiens, five-dose, SK-OV-3, read-out: LC50 (the source's name)): > 100 µM
- TGI (SK-OV-3; five-dose, SK-OV-3): 100.0 µM
- activity at 10 µM (OVCAR-8; Homo sapiens, 10 μM, OVCAR-8, Ovarian Cancer, read-out: Growth percentage): 35.2%
- GI50 (OVCAR-8; [4]): > 100 µM
- IC50 (OVCAR-8; [4]): > 100 µM
- CC50 (OVCAR-8; Homo sapiens, five-dose, OVCAR-8, read-out: LC50 (the source's name)): > 100 µM
- TGI (OVCAR-8; five-dose, OVCAR-8): 100.0 µM
- Growth percentage (NCI-H322M; 10 μM, Non-Small-Cell Lung Cancer): 95.7%
- GI50 (NCI-H322M; Homo sapiens, five-dose): > 100 µM
- IC50 (NCI-H322M; Homo sapiens, five-dose): > 100 µM
- LC50 (NCI-H322M; Homo sapiens, five-dose): > 100 µM
- TGI (NCI-H322M; five-dose): 100.0 µM
- GI50 (HCT-116; Homo sapiens): 0.21 µM
- IC50 (HCT-116; Homo sapiens): 0.34 µM
- TGI (HCT-116): 100.0 µM
- activity at 10 µM (SW-620; Homo sapiens, 10 μM, SW-620, Colon Cancer, read-out: Growth percentage): 3.2%
- GI50 (SW-620; [5]): 3.7 µM
- IC50 (SW-620; [5]): 4.7 µM
- CC50 (SW-620; Homo sapiens, five-dose, SW-620, read-out: LC50 (the source's name)): > 100 µM
- TGI (SW-620; five-dose, SW-620): 100.0 µM
- activity at 10 µM (PC-3; Homo sapiens, 10 μM, PC-3, Prostate Cancer, read-out: Growth percentage): 53.4%
- GI50 (PC-3; Homo sapiens, five-dose, PC-3): 51.3 µM
- IC50 (PC-3; Homo sapiens, five-dose, PC-3): > 100 µM
- CC50 (PC-3; Homo sapiens, five-dose, PC-3, read-out: LC50 (the source's name)): > 100 µM
- TGI (PC-3; five-dose, PC-3): 100.0 µM
- GI50 (T-47D; Homo sapiens, T47D): > 100 µM
- IC50 (T-47D; Homo sapiens, T47D): > 100 µM
- CC50 (T-47D; Homo sapiens, T47D, read-out: LC50 (the source's name)): > 100 µM
- TGI (T-47D): 77.6 µM
- activity at 10 µM (A549/ATCC; Homo sapiens, 10 μM, Non-Small-Cell Lung Cancer, read-out: Growth percentage): 65.8%
- GI50 (A549/ATCC; Homo sapiens, five-dose): > 100 µM
- IC50 (A549/ATCC; Homo sapiens, five-dose): > 100 µM
- CC50 (A549/ATCC; [2]): > 100 µM
- TGI (A549/ATCC; five-dose): 7.94 µM
- activity at 10 µM (HT29; Homo sapiens, HT-29, 10 μM, HT29, Colon Cancer, read-out: Growth percentage): 3.7%
- GI50 (HT29; [6]): > 100 µM
- IC50 (HT29; [6]): 100 µM
- CC50 (HT29; Homo sapiens, HT-29, five-dose, HT29, read-out: LC50 (the source's name)): > 100 µM
- TGI (HT29; five-dose, HT29): 1.91 µM
- Growth percentage (IGROV1; 10 μM, IGROV1, Ovarian Cancer): 44.6%
- GI50 (IGROV1; [7]): > 100 µM
- IC50 (IGROV1; [7]): > 100 µM
- CC50 (IGROV1; Homo sapiens, IGROV-1, five-dose, IGROV1, read-out: LC50 (the source's name)): > 100 µM
- TGI (IGROV1; five-dose, IGROV1): 100.0 µM
